Target: EGFR (human) (UniProt P00533)
Conditions: mcf-7

Chain of EGFR (human) (P00533 whole entry, looked up): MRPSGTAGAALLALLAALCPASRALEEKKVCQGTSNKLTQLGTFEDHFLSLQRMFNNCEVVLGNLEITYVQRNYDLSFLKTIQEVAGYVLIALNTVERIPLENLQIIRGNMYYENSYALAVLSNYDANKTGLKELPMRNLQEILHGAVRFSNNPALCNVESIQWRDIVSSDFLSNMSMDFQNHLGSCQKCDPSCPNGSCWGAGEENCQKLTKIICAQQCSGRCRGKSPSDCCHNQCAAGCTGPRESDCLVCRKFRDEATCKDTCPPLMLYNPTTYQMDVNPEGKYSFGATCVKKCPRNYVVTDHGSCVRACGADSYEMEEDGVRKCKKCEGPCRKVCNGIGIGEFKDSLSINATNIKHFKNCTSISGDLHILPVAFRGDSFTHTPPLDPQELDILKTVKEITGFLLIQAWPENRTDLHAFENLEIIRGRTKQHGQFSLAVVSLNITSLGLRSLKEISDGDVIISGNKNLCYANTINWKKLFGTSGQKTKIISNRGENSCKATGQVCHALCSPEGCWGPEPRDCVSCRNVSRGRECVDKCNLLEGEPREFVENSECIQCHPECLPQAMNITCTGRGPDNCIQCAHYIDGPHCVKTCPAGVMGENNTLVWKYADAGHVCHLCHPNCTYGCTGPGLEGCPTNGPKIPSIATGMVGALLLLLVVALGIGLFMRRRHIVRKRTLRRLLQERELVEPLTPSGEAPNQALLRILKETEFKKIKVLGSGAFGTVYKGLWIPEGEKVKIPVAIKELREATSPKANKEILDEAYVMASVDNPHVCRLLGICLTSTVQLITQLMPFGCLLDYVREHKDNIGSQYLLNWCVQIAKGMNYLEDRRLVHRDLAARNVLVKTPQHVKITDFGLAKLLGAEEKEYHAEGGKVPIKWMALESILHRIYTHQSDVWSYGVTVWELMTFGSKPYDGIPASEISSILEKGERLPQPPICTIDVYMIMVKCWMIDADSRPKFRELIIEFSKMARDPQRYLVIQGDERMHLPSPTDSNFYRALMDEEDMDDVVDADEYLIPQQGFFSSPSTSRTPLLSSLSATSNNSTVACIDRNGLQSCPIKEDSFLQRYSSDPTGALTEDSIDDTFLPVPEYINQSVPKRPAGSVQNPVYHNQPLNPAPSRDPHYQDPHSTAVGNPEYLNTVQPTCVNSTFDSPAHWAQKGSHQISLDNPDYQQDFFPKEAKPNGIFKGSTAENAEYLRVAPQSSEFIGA

Row | Compound | IC50 [nM]
1 | CCOc1ccc2nc(C)cc(N3CCN(C(=O)c4ccco4)CC3)c2c1 | 4.31
2 | CCOc1ccc2nc(C)cc(Nc3ccc(S(=O)(=O)Nc4ncccn4)cc3)c2c1 | 3.96
3 | CCOc1ccc2nc(C)cc(Nc3cccc(O)c3)c2c1 | 2.84
4 | CCOc1ccc2nc(C)cc(Nc3ccc(S(=O)(=O)NC(=N)N)cc3)c2c1 | 19.2
5 | CCOc1ccc2nc(C)cc(Nc3ccc(S(=O)(=O)Nc4cc(C)on4)cc3)c2c1 | 13.8
6 | CCOc1ccc2nc(C)cc(Nc3ccc(Cl)cc3Cl)c2c1 | 4.38

These reach a lower IC50. Values come first.

Row | IC50 [nM] | Compound
7 | 1.98 | COc1cc2nc(Cl)nc(Nc3ccc(S(=O)(=O)Nc4cc(C)on4)cc3)c2cc1OC
8 | 1.67 | CCOc1ccc2nc(C)cc(Nc3cc(OC)c(OC)cc3C(=O)OC)c2c1
9 | 1.08 | COc1cc2nc(Cl)nc(N3CCN(S(=O)(=O)c4ccc(C)cc4)CC3)c2cc1OC
10 | 0.13 | COc1cc2nc(Cl)nc(Nc3ccc(S(=O)(=O)Nc4nccs4)cc3)c2cc1OC

From the Kinase Knowledgebase extract (Sharma et al. 2016)
